Results taken from patent US11903931B2, “Salts of selective estrogen receptor degraders” (InventisBio Co., Ltd., priority 2018, dated 2024).
Where a name gives a salt, the structure may show the parent alone.

Columns and labels:
[1] = Solid stability test at 40° C./75% RH for 8 days (HPLC, XRPD); assay type: physicochemical; conditions: for Physical and chemical stability / XRPD patterns after storage: 40° C./75% RH for 8 days; for Purity at 8 days / Purity at 0 day: HPLC; for Purity at 8 days: after 40° C./75% RH for 8 days; for Purity at 0 day: start of stability test
Experimental: HPLC ANALYSIS: a representative HPLC method is shown below, which can be used, for example, to analyze the purity, solubility, and stability of the salts herein.
For stability test: About 20 mg of Compound FA, L-lysine salt and meglumine salt (Form I) were weighed into vials, and put at the condition of 40° C./75% RH for 8 days. At 0 and 8 days, the solid sample was dissolved using acetonitrile/water (1/1) to make a solution with the concentration of 0.2 mg/mL. Sample solutions were analyzed by HPLC and solid samples were examined by XRPD.

[2] = system: ER+ breast cancer cells; conditions: cited from earlier work
[3] = compared with fulvestrant, GDC-0810 and AZD9496; cited from earlier work
[4] = Dynamic moisture sorption analysis (DVS); assay type: physicochemical
Experimental: Dynamic moisture sorption analysis (DVS): DVS was determined using IGAsorp (Hiden Isochema, UK). The sample was tested at a targeted RH (relative humidity) of 10 to 90% full cycle in step mode. The analysis was performed in 10% RH increments.

[5] = Solubility test in pH 1.2 or pH 6.8 buffer (saturated solutions, HPLC; remaining solids by XRPD); assay type: physicochemical; conditions: for XRPD analysis of remaining solids after solubility test: 24 hours, medium not stated; for XRPD patterns at 24 h: remaining solid
Experimental: For solubility test: About 20 mg of Compound FA, L-lysine salt and meglumine salt (Form I) were weighed into vials, added 3 mL of pH1.2 or pH 6.8 buffer to make saturated solutions. All suspensions were kept shaking with 200 rpm at room temperature for up to 24 hours. […] At 24 hours, remaining solids were collected and determined by XRPD.

[6] = Solid stability test of Form I at 25° C./92.5% RH for 10 days (XRPD); assay type: physicochemical
Experimental: Solid stability test of Form I at 92.5% RH for 10 days: About 20 mg of meglumine salt Form I was put into the condition of 25° C./92.5% RH for 10 days. At 10 days, the sample was analyzed by XRPD.

[7] = Meglumine salt form interconversion study (slurry in IPA or water, XRPD); assay type: physicochemical; conditions: for Final crystal form: Water
Experimental: Interconversion study: Interconversion studies were carried out by mixing the same amount of different form solids in IPA or water, respectively. Suspensions were kept stirring at room temperature and 60° C. for several days, during which suspensions were filtrated and analyzed by XRPD.

[8] = Physical treatment (grinding) of Form I; assay type: physicochemical; conditions: grinded for 2 min and 5 min
Experimental: Physical treatment of Form I: Form I of meglumine salt was grinded for 2 min and 5 min. After grinding, the crystallinity declined, but the crystal form was still Form I.

[9] = biological target: T1, ER (Homo sapiens, UniProt P03372); conditions: intramuscular injection monthly; cited from earlier work
T1 sequence (P03372 1-595): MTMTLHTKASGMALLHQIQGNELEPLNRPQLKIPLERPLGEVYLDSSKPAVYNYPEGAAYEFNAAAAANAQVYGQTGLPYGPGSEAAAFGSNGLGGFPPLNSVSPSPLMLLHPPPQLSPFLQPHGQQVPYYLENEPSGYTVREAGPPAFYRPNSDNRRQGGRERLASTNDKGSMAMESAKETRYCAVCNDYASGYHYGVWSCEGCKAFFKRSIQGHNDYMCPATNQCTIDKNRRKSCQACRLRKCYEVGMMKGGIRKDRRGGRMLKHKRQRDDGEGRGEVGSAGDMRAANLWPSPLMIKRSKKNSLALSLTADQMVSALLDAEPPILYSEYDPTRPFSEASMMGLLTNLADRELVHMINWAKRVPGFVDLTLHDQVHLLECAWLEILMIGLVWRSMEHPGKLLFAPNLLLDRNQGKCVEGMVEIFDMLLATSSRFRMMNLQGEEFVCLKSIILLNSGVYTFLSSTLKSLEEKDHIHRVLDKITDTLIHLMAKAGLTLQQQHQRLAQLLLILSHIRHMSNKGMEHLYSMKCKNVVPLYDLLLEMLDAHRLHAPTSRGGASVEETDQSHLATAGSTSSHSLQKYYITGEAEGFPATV

Physical and chemical stability [1] | XRPD patterns after storage [1] | Purity at 8 days [1] [Area %] | Purity at 0 day [1] [Area %] | XRPD pattern after DVS test [4] | Moisture adsorbed (DVS) ([4]; at 80% RH) | XRPD analysis of remaining solids after solubility test [5] | Stability in pH 1.2 buffer solution (HPLC) ([5]; pH 1.2 buffer) | XRPD patterns at 24 h ([5]; pH 1.2 buffer) | XRPD patterns at 24 h ([5]; pH 6.8 buffer) | Crystal form after storage (XRPD) [6] | Final crystal form ([7]; 25° C.) | Final crystal form ([7]; 60° C.) | Relative stability of crystal forms ([7]; in water at 60° C. and IPA) | Crystal form after grinding [8] | Crystallinity after grinding [8] | SMILES | Growth of ER+ breast cancer cells [2] | Human hepatocyte clearance [3] | ER degradation in clinical samples [9] [%]
physically and chemically stable | not changed | 96.31 | 98.02 | didn't change | about 1.7% | became lower | unstable | Low crystallinity | Low crystallinity |  |  |  |  |  |  | C[C@@H]1Cc2c([nH]c3ccccc23)[C@@H](c2c(Cl)cc(/C=C/C(=O)O)cc2Cl)N1CC(C)(C)F [Compound FA, (E)-3-(3,5-dichloro-4-((1R,3R)-2-(2-fluoro-2-methylpropyl)-3-methyl-2,3,4,9-tetrahydro-1H-pyrido[3,4-b]indol-1-yl)phenyl)acrylic acid] | inhibited the growth | better human hepatocyte clearance | 
physically and chemically stable | not changed | 99.66 | 99.68 |  |  | became lower | unstable | No change | Low crystallinity | remained unchanged | Dihydrate | Form I | most stable crystal form | still Form I | declined | C[C@@H]1Cc2c([nH]c3ccccc23)[C@@H](c2c(Cl)cc(/C=C/C(=O)O)cc2Cl)N1CC(C)(C)F [Meglumine salt, Meglumine (E)-3-(3,5-dichloro-4-((1R,3R)-2-(2-fluoro-2-methylpropyl)-3-methyl-2,3,4,9-tetrahydro-1H-pyrido[3,4-b]indol-1-yl)phenyl)acrylate] |  |  | 
 |  |  |  |  |  |  |  |  |  |  |  |  |  |  |  | C[C@]12CC[C@@H]3c4ccc(O)cc4C[C@@H](CCCCCCCCC[S+]([O-])CCCC(F)(F)C(F)(F)F)[C@H]3[C@@H]1CC[C@@H]2O (stereo partly drawn) [fulvestrant] |  |  | ~50
